One experiment addresses T1, mutant MGL (Homo sapiens, UniProt Q99685, L169S/L176S).
T1 sequence (Q99685 1-303 L169S/L176S): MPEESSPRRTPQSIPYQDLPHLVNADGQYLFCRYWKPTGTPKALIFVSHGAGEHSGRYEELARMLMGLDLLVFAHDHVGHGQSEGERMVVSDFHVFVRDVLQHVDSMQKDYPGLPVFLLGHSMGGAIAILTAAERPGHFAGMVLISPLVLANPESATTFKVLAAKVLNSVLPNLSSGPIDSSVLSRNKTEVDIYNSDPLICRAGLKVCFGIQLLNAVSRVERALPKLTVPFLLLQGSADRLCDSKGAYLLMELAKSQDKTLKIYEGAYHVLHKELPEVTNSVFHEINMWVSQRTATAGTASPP
Kind of experiment: MGL ThermoFluor assay - mutant. In kind it is binding. On the technique in general: DSF heats the sample and reads unfolding from a dye or from intrinsic fluorescence.

In another experiment the target is T2, MGL (Rattus norvegicus, UniProt Q8R431).
T2 construct: one g rat brain was homogenized using a Polytron homogenizer; from tissue; host or cells: rat brain homogenate
T2 sequence (Q8R431 1-303): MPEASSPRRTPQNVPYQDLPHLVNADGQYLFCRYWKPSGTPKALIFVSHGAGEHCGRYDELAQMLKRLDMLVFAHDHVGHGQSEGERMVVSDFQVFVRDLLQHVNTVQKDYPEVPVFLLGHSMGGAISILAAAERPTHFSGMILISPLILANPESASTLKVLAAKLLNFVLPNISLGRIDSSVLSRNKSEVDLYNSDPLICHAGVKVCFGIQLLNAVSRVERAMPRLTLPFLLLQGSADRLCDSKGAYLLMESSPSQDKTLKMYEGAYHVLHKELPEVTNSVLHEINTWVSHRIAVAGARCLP
Kind of experiment: 2-AG accumulation assay in rat brain homogenate. The following applies: rat brain homogenate, 2-AG accumulation as percent of vehicle; for 2-AG accumulation, % of vehicle control at 1 µM: compound 1 μM, read-out: Rat Brain 2AG % VehCntrl (%) @ 1 μM. In kind it is biochemical.

Experiment [1] addresses T3, purified wild type MGL (wt-MGLL 6H-11-313) (Homo sapiens, UniProt Q99685).
T3 sequence (Q99685 1-303): T1 sequence (Q99685 1-303 L169S/L176S) with S169L, S176L

The mark [2] stands for this setting: ThermoFluor concentration-response, read-out: MGL mutant ThermoFluor Kd.
Where [3] appears, read: ThermoFluor, compound concentration measured by qNMR, read-out: MGL mutant ThermoFluor qKd (μM) (using qNMR conc.).
[4] abbreviates: ThermoFluor, compound concentration measured by qNMR, read-out: MGL mutant ThermoFluor qKd (using qNMR conc.).
The mark [5] stands for this setting: ThermoFluor thermal stability binding assay, read-out: MGL mutant ThermoFluor Kd.

Consider 28 compounds from patent US8362000B2, “Azetidinyl diamides as monoacylglycerol lipase inhibitors” (Janssen Pharmaceutica NV, priority 2009, dated 2013).

Residue numbers refer to the chain shown, from its start. Read-outs that look alike come from different tables or passages of the source.

Experimental for mutant MGL: The ThermoFluor (TF) assay is a 384-well plate-based binding assay that measures thermal stability of proteins^1,2. […] TF dye used in all experiments was 1,8-ANS (Invitrogen: A-47). Final TF assay conditions used for MGL studies were 0.07 mg/ml of mutant MGL, 100 μM ANS, 200 mM NaCl, 0.001% Tween-20 in 50 mM PIPES (pH=7.0).
Screening compound plates contained 100% DMSO compound solutions at a single concentration. […] Columns 12 and 24 were used as DMSO reference and contained no compound. […] Following compound dispension, protein and dye solutions were added to achieve the final assay volume of 3 μL.
Bar-coded assay plates were robotically loaded onto a thermostatically controlled PCR-type thermal block and then heated from 40 to 90° C. degrees at a ramp-rate of 1° C./min for all experiments. Fluorescence was measured by continuous illumination with UV light (Hamamatsu LC6), supplied via fiber optics and filtered through a band-pass filter (380-400 nm; >60D cutoff). Fluorescence emission of the entire 384-well plate was detected by measuring light intensity using a CCD camera (Sensys, Roper Scientific) filtered to detect 500±25 nm, resulting in simultaneous and independent readings of all 384 wells. A single image with 20-sec exposure time was collected at each temperature, and the sum of the pixel intensity in a given area of the assay plate was recorded vs temperature and fit to standard equations to yield the Tm^1. • 1.
For some experiments, quantitative NMR spectroscopy (qNMR) was used to measure concentration of the initial 100% DMSO compound solutions and, using the same fitting method, qKd values were determined

The IC50 is the point on the concentration scale where inhibition reaches its midpoint. As for `O=C(c1ccc(Oc2cccc(C(F)(F)F)c2)nc1)N1CC(N2CCN(C(=O)c3nccs3)CC2)C1` [Cpd 660], on mutant MGL (setting [2]), the Kd worked out at 0.065 µM. Besides, the 2-AG accumulation, % of vehicle control at 1 µM on MGL was 410%. Also, the 50% inhibitory concentration (IC50) in experiment [1] stood at 0.01 µM.
For the compound `O=C(c1ccc2nc(-c3ccc(F)c(F)c3)oc2c1)N1CC(N2CCN(C(=O)c3nccs3)CC2)C1` [Cpd 1077], the Kd at mutant MGL (setting [3]) was 0.02 µM. Further, the 2-AG accumulation, % of vehicle control at 1 µM on MGL worked out at 667%. The half-inhibitory concentration (IC50) in experiment [1] turned out to be 0.008 µM.
The matching figures for `O=C(c1ccc2c(ccn2-c2cc(F)cc(F)c2)c1)N1CC(N2CCN(C(=O)c3nccs3)CC2)C1` [Cpd 1371]: 0.003 µM, 827% and below 0.005 µM.
In the case of `O=C(c1cc[nH]c1)N1CC(N2CCN(C(=O)c3cc4cc(C(F)(F)F)ccc4s3)CC2)C1` [Cpd 741, 1-[1-(1H-Pyrrol-3-ylcarbonyl)azetidin-3-yl]-4-{[5-(trifluoromethyl)-1-benzothiophen-2-yl]carbonyl}piperazine], the Kd on mutant MGL (setting [2]) came out at 0.2 µM. On MGL, the 2-AG accumulation, % of vehicle control at 1 µM is 182%. For the same compound, the IC50 in experiment [1] was 0.298 µM.
As for `O=C(c1ccc2nc(-c3ccc(F)c(F)c3)oc2c1)N1CC(N2CCN(C(=O)c3cscn3)CC2)C1` [Cpd 1178], the Kd on mutant MGL (setting [3]) came to 0.238 µM. Moreover, on MGL, the 2-AG accumulation, % of vehicle control at 1 µM was found to be 292%. 0.071 µM corresponded to half-maximal inhibition in experiment [1] (IC50).
With `O=C(c1nccs1)N1CCN(C2CN(C(=O)c3sc4ccc(Cl)cc4c3C(F)(F)F)C2)CC1` [Cpd 896, 1-(1-{[5-Chloro-3-(trifluoromethyl)-1-benzothiophen-2-yl]carbonyl}azetidin-3-yl)-4-(1,3-thiazol-2-ylcarbonyl)piperazine], the Kd at mutant MGL (setting [2]) is 0.008 µM. Besides, the 2-AG accumulation, % of vehicle control at 1 µM on MGL is 648%. In addition, in experiment [1], the concentration for half-maximal inhibition (IC50) is below 0.005 µM.
Regarding `CCCCCCCC/C=C\CCCCCCCC(=O)N1CC(N2CCN(C(=O)c3nccs3)CC2)C1` [Cpd 641], the Kd on mutant MGL (setting [2]) turned out to be 0.118 µM; at mutant MGL (setting [4]) it was 0.136 µM. At MGL, the 2-AG accumulation, % of vehicle control at 1 µM is 397%. This compound gave an IC50 in experiment [1] below 0.005 µM.
Consider `O=C(c1cc2cc(C(F)(F)F)ccc2s1)N1CCN(C2CN(C(=O)c3nccs3)C2)CC1` [Cpd 676, 1-[1-(1,3-Thiazol-2-ylcarbonyl)azetidin-3-yl]-4-{[5-(trifluoromethyl)-1-benzothiophen-2-yl]carbonyl}piperazine], for which the Kd at mutant MGL (setting [2]) stood at 0.029 µM. In addition, the 2-AG accumulation, % of vehicle control at 1 µM at MGL was 437%. In addition, the IC50 in experiment [1] amounted to 0.021 µM.
`O=C(c1nccs1)N1CCN(C2CN(C(=O)c3sc4ccc5ccccc5c4c3Cl)C2)CC1` [Cpd 890]: at mutant MGL (setting [2]), the Kd is 0.001 µM. Moreover, the 2-AG accumulation, % of vehicle control at 1 µM on MGL came to 823%. The IC50 in experiment [1] is below 0.005 µM.
The matching figures for `O=C(c1ccccc1)N1CCN(C2CN(C(=O)c3ccc(S(=O)(=O)c4cccc(C(F)(F)F)c4)cc3)C2)CC1` [Cpd 508]: 0.162 µM, 119% and 0.107 µM.
The corresponding values for `O=C(c1ccc(Oc2cccc(Cl)c2)nc1)N1CC(N2CCN(C(=O)c3nccs3)CC2)C1` [Cpd 683] are 0.039 µM, 335% and 0.031 µM.
In the case of `Cc1c(C(=O)N2CC(N3CCN(C(=O)c4cscn4)CC3)C2)sc2ccc(C(F)(F)F)cc12` [Cpd 898], the Kd at mutant MGL (setting [5]) came out at 0.009 µM. The 2-AG accumulation, % of vehicle control at 1 µM at MGL is 520%. In experiment [1], this compound had an IC50 below 0.005 µM.
Take `Cc1c(C(=O)N2CC(N3CCN(C(=O)c4cscn4)CC3)C2)sc2ccc(-c3ccccc3)cc12` [Cpd 1058, 1-{1-[(3-Methyl-5-phenyl-1-benzothiophen-2-yl)carbonyl]azetidin-3-yl}-4-(1,3-thiazol-4-ylcarbonyl)piperazine]: the Kd on mutant MGL (setting [2]) was 0.007 µM. The 2-AG accumulation, % of vehicle control at 1 µM at MGL came out at 590%. For the same compound, in experiment [1], the half-inhibitory concentration (IC50) stood at 0.006 µM.
Turning to `O=C(c1ccc2cc(-c3ccccc3)[nH]c2c1)N1CC(N2CCN(C(=O)c3nccs3)CC2)C1` [Cpd 1333], on mutant MGL (setting [4]), the Kd is 0.04 µM. In addition, the 2-AG accumulation, % of vehicle control at 1 µM at MGL worked out at 824%. For the same compound, the IC50 in experiment [1] is below 0.005 µM.
As to `O=C(c1ccc(-c2nc(-c3ccc(Cl)c(Cl)c3)cs2)cc1)N1CC(N2CCN(C(=O)c3nccs3)CC2)C1` [Cpd 1331], the Kd at mutant MGL (setting [4]) is 0.01 µM. The 2-AG accumulation, % of vehicle control at 1 µM on MGL is 803%. The compound further displayed a 50% inhibitory concentration (IC50) in experiment [1] below 0.005 µM.
Regarding `O=C(c1ccc2c(c1)Sc1ccccc1O2)N1CC(N2CCN(C(=O)c3ccc[nH]3)CC2)C1` [Cpd 678, 1-[1-(Phenoxathiin-2-ylcarbonyl)azetidin-3-yl]-4-(1H-pyrrol-2-ylcarbonyl)piperazine], the Kd at mutant MGL (setting [2]) amounted to 0.031 µM. In addition, the 2-AG accumulation, % of vehicle control at 1 µM on MGL stood at 234%. Moreover, in experiment [1], half-maximal inhibition (IC50) was put at 0.022 µM.
As to `N#Cc1ccccc1-n1ccc2cc(C(=O)N3CC(N4CCN(C(=O)c5nccs5)CC4)C3)ccc21` [Cpd 1109], the Kd on mutant MGL (setting [5]) turned out to be 0.022 µM. The 2-AG accumulation, % of vehicle control at 1 µM on MGL was 680%. This compound also yielded a concentration for half-maximal inhibition (IC50) in experiment [1] of 0.015 µM.
For the compound `CCCCCCCCCCCCCCCC(=O)N1CC(N2CCN(C(=O)c3nccs3)CC2)C1` [Cpd 636], the Kd on mutant MGL (setting [2]) came to 0.119 µM. Moreover, the 2-AG accumulation, % of vehicle control at 1 µM at MGL came to 296%. Besides, 0.021 µM corresponded to half-maximal inhibition in experiment [1] (IC50).
Regarding `Cc1cc(-c2ccccc2)ccc1C(=O)N1CC(N2CCN(C(=O)c3nccs3)CC2)C1` [Cpd 1074, 1-{1-[(3-Methylbiphenyl-4-yl)carbonyl]azetidin-3-yl}-4-(1,3-thiazol-2-ylcarbonyl)piperazine], the Kd at mutant MGL (setting [2]) came out at 0.011 µM. Further, the 2-AG accumulation, % of vehicle control at 1 µM at MGL worked out at 303%. For the same compound, inhibition in experiment [1] was half-maximal at 0.008 µM (IC50).
As for `Cc1c(-c2ccccc2)oc2c(C(=O)N3CC(N4CCN(C(=O)c5nccs5)CC4)C3)cccc2c1=O` [Cpd 476], the Kd on mutant MGL (setting [2]) turned out to be 0.0667 µM. Moreover, on MGL (compound 10 μM, read-out: Rat Brain 2AG % VehCntrl (%) @ 10 μM), the 2-AG accumulation, % of vehicle control at 10 µM stood at 272%. This compound yielded an IC50 in experiment [1] of 0.338 µM.
As to `Cc1c(C(=O)N2CC(N3CCN(C(=O)c4ccccc4)CC3)C2)sc2ccc(C(F)(F)F)cc12` [Cpd 504], on mutant MGL (setting [5]), the Kd came out at 0.024 µM. Moreover, at MGL, the 2-AG accumulation, % of vehicle control at 1 µM was determined as 178%. In experiment [1], this compound gave an IC50 of 0.01 µM.
For the compound `O=C(c1cscn1)N1CCN(C2CN(C(=O)c3cc4ccn(-c5ccc(F)cc5)c4cc3F)C2)CC1` [Cpd 1069], on mutant MGL (setting [2]), the Kd is 0.028 µM. Further, the 2-AG accumulation, % of vehicle control at 1 µM at MGL came out at 696%. For the same compound, half-maximal inhibition in experiment [1] (IC50) was put at 0.007 µM.
`O=C(c1cc(-c2ccccc2)cc(C(F)(F)F)c1)N1CC(N2CCN(C(=O)c3cscn3)CC2)C1` [Cpd 1259]: the Kd on mutant MGL (setting [2]) is 0.667 µM. For the same compound, on MGL, the 2-AG accumulation, % of vehicle control at 1 µM came to 159%. Besides, in experiment [1], half-maximal inhibition (IC50) was put at 0.847 µM.
As to `O=C(c1ccccc1)N1CCc2cc(C(=O)N3CC(N4CCN(C(=O)c5nccs5)CC4)C3)ccc2C1` [Cpd 736], the Kd on mutant MGL (setting [5]) came out at 0.067 µM. In addition, the 2-AG accumulation, % of vehicle control at 1 µM at MGL was 499%. Besides, the half-maximal inhibitory concentration (IC50) in experiment [1] stood at 0.273 µM.
The matching figures for `O=C(c1cc2cc(-c3cccc(C(F)(F)F)c3)ccc2o1)N1CC(N2CCN(C(=O)c3nccs3)CC2)C1` [Cpd 1343]: 0.077 µM, 838% and below 0.005 µM.
The corresponding values for `COc1cc(C(=O)N2CC(N3CCN(C(=O)c4ccccc4)CC3)C2)ccc1-c1ccc(F)c(Cl)c1` [Cpd 263, 1-{1-[(3′-Chloro-4′-fluoro-2-methoxybiphenyl-4-yl)carbonyl]azetidin-3-yl}-4-(phenylcarbonyl)piperazine] are 0.005 µM, 199% and 0.0285 µM.
As to `O=C(c1ccc2c(-c3ccc(F)cc3)c[nH]c2c1)N1CC(N2CCN(C(=O)c3nccs3)CC2)C1` [Cpd 1317, 3-(4-Fluorophenyl)-6-({3-[4-(1,3-thiazol-2-ylcarbonyl)piperazin-1-yl]azetidin-1-yl}carbonyl)-1H-indole], the Kd on mutant MGL (setting [2]) was 0.002 µM. For the same compound, the 2-AG accumulation, % of vehicle control at 1 µM on MGL was determined as 722%. Further, in experiment [1], the IC50 is below 0.005 µM.
Consider `Cn1ccc2cc(C(=O)N3CC(N4CCN(C(=O)c5nccs5)CC4)C3)cc(-c3cccc(F)c3)c21` [Cpd 1066], for which, at mutant MGL (setting [3]), the Kd is 0.031 µM. In addition, the 2-AG accumulation, % of vehicle control at 1 µM at MGL was determined as 609%. In experiment [1], this compound gave a half-inhibitory concentration (IC50) of 0.007 µM.
